In assay [1] the test system is adult rat ventricular cardiomyocytes. The assay can be described thus: cell contractility assay, edge detection method (IonOptix). The assay is classed as cell-based. The following applies: atenolol 100 nM, 20 min; 1 Hz pacing; with and without 10 nM isoproterenol. Here is the method:
FIG. 7. Experimental data for cardiomyocyte hypertrophy (A) and cell contractility (B) assays performed with freshly isolated adult rat ventricular cardiomyocytes (CM) using atenolol coated nanoparticles (Atenolol NP) and control nanoparticles.
Freshly isolated adult rat ventricular CMs were incubated for 20 min with atenolol (100 nM), atenolol coated or control nanoparticles (both at 30 nM) and cell contractility was measured using edge detection method (IonOptix) at 1 Hz pacing frequency with and without stimulation with 10 nM isoproterenol.

The target of a further assay is β1-AR (Homo sapiens, UniProt P08588). The following applies: HEK293 cells stably expressing β1-AR; pretreatment 20 min with 30 nM; ISO 0.1 nM.
β1-AR, sequence (P08588 whole entry): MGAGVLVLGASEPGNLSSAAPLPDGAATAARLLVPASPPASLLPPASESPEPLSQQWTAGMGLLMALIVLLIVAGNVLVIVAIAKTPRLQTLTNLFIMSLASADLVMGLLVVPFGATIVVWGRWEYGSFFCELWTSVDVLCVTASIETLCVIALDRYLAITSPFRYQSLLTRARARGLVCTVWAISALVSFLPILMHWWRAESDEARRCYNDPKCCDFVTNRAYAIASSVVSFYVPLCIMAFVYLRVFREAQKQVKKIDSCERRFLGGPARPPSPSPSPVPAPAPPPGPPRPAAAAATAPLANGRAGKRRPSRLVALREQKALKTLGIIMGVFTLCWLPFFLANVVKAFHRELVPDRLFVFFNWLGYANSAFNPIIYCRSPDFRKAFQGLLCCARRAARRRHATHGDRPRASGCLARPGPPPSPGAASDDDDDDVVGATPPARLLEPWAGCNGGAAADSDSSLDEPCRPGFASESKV

Description for β1-AR: Experimental data with HEK293 cells stably expressing β1-AR and the cAMP biosensor Epac1-camps.

On to `CC(C)NCC(O)COc1ccc(CC(N)=O)cc1` (centres unmarked) [atenolol], for which, in assay [1], the cell contractility result was “decrease cell contractility”. Besides, the “inhibition of ISO-induced cAMP increase (CFP/YFP ratio)” value on β1-AR is recorded as “efficacious in blocking β1-AR dependent cAMP synthesis”.

Values taken from US11357825B2, “Means for treating cardiovascular disease” (Universitaetsklinikum Hamburg-Eppendorf, priority 2017, dated 2022).
